Measured values: patent US20050256103A1, “Indole derivative having piperidine ring” (Eisai Co., Ltd., priority 2004, published 2005)
Where two headings read alike, the source gives them in different places.

Key:
[1] = target: T1, 5-HT1A receptor (Sus scrofa, UniProt A0A4X1UTF5); assay: Affinity for serotonin 1A receptor: inhibition of [3H]MPPF binding in swine hippocampal membrane fraction; conditions: for IC50: [3H]MPPF 0.5 nM, swine hippocampal membrane, 37°C 30 min; for L/H ratio: low affinity IC50 divided by high affinity IC50, 1 or smaller = no intrinsic activity, 2 or greater = intrinsic activity
T1 construct: Swine hippocampus was homogenized in a 50 mM Tris-Hcl buffer; from tissue; host or cells: swine hippocampus, membrane fraction
T1 sequence (A0A4X1UTF5 1-422): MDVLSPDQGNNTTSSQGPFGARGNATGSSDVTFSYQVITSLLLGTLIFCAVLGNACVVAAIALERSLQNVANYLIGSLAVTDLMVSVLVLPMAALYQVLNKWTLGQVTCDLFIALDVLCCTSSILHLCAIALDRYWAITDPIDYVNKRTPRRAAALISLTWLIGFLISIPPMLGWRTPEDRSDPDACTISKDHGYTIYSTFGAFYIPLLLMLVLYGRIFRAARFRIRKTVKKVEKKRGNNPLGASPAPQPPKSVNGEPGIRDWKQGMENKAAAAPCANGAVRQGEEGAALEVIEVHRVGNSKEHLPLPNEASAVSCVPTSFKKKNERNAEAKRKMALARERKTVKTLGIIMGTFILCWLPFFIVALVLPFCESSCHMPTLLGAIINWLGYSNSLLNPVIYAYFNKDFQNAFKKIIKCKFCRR
Summary of the method: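 Swine hippocampal membranes incubated 30 min at 37 °C with 0.5 nM [3H]MPPF and test compound in 50 mM Tris-HCl pH 7.4, 1% DMSO, with 10 mM MgCl2 (G-protein-coupled, high-affinity state) or 1 mM Gpp(NH)p (uncoupled, low-affinity state). Bound radioactivity measured by filtration and scintillation counting; nonspecific binding defined with 10 μM WAY-100,635. IC50 in each state; low/high IC50 ratio taken as an estimate of intrinsic activity.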

[2] = target: T2, serotonin 1A receptor (Mus musculus, UniProt Q64264); assay: Antagonistic effect on serotonin 1A receptor agonist (8-OH-DPAT)-induced hypothermia in mouse; assay type: in vivo; conditions: for ED50: CD-1 (ICR) male mice, inhibition of hypothermia by 8-OH-DPAT 0.5 mg/kg sc, test substance 15 minutes before agonist
T2 construct: into the rectum of CD-1 (ICR) male mice (25-45 g); from tissue; host or cells: living CD-1 (ICR) male mice (in vivo)
T2 sequence (Q64264 1-421): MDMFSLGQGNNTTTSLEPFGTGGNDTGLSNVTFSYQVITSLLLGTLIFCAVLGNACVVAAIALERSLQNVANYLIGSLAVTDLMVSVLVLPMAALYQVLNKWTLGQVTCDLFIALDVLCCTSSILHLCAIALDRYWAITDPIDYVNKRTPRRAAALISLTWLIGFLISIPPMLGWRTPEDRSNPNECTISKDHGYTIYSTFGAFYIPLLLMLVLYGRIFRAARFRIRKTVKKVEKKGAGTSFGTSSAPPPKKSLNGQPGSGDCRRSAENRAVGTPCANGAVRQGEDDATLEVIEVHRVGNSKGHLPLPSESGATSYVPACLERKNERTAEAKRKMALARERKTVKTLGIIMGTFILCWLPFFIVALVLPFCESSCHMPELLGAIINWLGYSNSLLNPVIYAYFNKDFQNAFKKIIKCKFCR
Summary of the method: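 CD-1 (ICR) male mice, 25-45 g; rectal temperature by thermistor probe at about 2 cm depth. Test substance given 15 min before s.c. 8-OH-DPAT […]; antagonism scored as inhibition of the induced hypothermia.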

[3] = system: urinary reflex of Sprague-Dawley female rats; assay: Inhibitory action against accentuated urinary reflex of rat due to destruction of the superior colliculus (cystometrogram); assay type: in vivo; conditions: iv, rat with superior colliculus lesion
Description: (1) In the present test, Sprague-Dawley female rates (200-350 g) were used. The rats were subjected to median incision of the abdomen under anesthesia. Thereafter, a hole with a minor diameter was made on the head portion of the bladder, and a catheter used for measurement of an intravesical pressure was placed therein. A catheter used for administration of a test substance was placed in the femoral vein. These catheters were fixed at the occipital region of the rat through the subcutis. One day later, the urinary reflex of the rats was measured with a cystometrogram. Thereafter, the rats were fixed on a brain stereotaxis apparatus under anesthesia, and then subjected to median incision of the scalp. […] Thereafter, electric current was applied (65° C., 4 minutes), so as to damage the brain tissues. After completion of the operation, when the rat awakened from anesthesia, cystometrogram was conducted again to confirm the enhanced state of urinary reflex. A test substance was administered through the catheter placed in the femoral vein, and the action of the test substance to the urinary reflex was evaluated. In addition, the effects of several test substances were compared using the maximal reaction (Emax).

[4] = receptor in high affinity (G-protein binding, MgCl2 10 mM) state, read-out: High affinity IC50
[5] = receptor in low affinity (G-protein non-binding, Gpp(NH)p 1 mM) state, read-out: Low affinity IC50

Row | Structure (SMILES) | IC50 [1, 4] [nM] | IC50 [1, 5] [nM] | L/H ratio [1] | ED50 [2] | Bladder capacity Emax ([3]; dose 0.03 mg/kg) [%] | IC50 ([1]; read-out: Low affinity IC50, receptor in low affinity (G-protein non-binding, Gpp(NH)p 1 mM) state) [nM] | affinity for 5-HT1A ([1]; result in words) | antagonistic effect against the receptor ([2]; result in words) | Bladder capacity Emax ([3]; dose 0.01 mg/kg) [%]
1 | COc1ccc2nc(C)oc2c1CCN1CCC(n2ccc3ccc(C(N)=O)cc32)CC1 [Compound 3, 1-{1-[2-(6-methoxy-2-methylbenzoxazol-7-yl)ethyl]piperidin-4-yl}-1H-indole-6-carboxamide] | 0.46 | 0.34 | 0.7 | 0.18 mg/kg, sc | 62 | – | – | – | –
2 | COc1cc2oc(C)nc2cc1CCN1CCC(n2ccc3ccc(C(N)=O)cc32)CC1 [Compound 4, 1-{1-[2-(6-methoxy-2-methylbenzoxazol-5-yl)ethyl]piperidin-4-yl}-1H-indole-6-carboxamide] | 0.17 | 0.15 | 0.9 | 0.1 mg/kg, sc | 107 | – | – | – | –
3 | CCn1c(=O)oc2cc(OC)c(CCN3CCC(n4ccc5ccc(C(N)=O)cc54)CC3)cc21 [Compound 60, 1-{1-[2-(3-ethyl-6-methoxy-2-oxo-2,3-dihydrobenzoxazol-5-yl)ethyl]piperidin-4-yl}-1H-indole-6-carboxamide] | 0.28 | 0.24 | 0.9 | 0.52 mg/kg, sc | – | – | – | – | –
4 | NC(=O)c1ccc2ccn(C3CCN(CCc4ccc(F)cc4)CC3)c2c1 [Compound A, reference compound] | 0.1 | – | 3.7 | >1 mg/kg, sc | – | 0.5 | has affinity | weak | −36
